Measured values from patent publication US10968214B2, “KRas G12C inhibitors” (Eli Lilly and Company, priority 2018, dated 2021).
Values joined by “and” are separate entries in the source; they are usually repeats but may differ in a detail not shown here. Identical values can stand only once. Like-named read-outs stand apart in the source and are kept apart here.

Key:
H2122 = experiment: CellTiterGlo Cell Proliferation Assay, H2122; format: cell-based; details: Homo sapiens, NCI-H2122, KRas G12C, Lung, 96 hr
Experimental: (§1) A panel of tumor cell lines harboring KRas G12C or other KRas mutations are collected (Table 6). All cell lines are from ATCC or other sources indicated.
(§2) Typically cells are cultured in RPMI1640 or Dulbecco's modified Eagle's medium (DMEM, GIBCO) supplemented with 10% FBS (GIBCO, Invitrogen). For 2D culture cells (4×10^3/well) maintained in growth medium described above, are plated onto 96 well tissue culture plates Corning® Cat. 3603) a day before the treatment. For 3D culture 8000 cells/well are seeded onto 96 well ultra-low attachment tissue culture plates (Corning, #3474). The cells are treated compound for 96 hr, and then are analyzed for viability using the CellTiterGlo® Luminescent Cell Viability Assay® (Promega #G7572 for 2D and Promega #G9683 for 3D cultures) according to manufacturer's instructions and an EnVision™ plate reader. Nonlinear regression and sigmoidal dose-response curves are used to calculate the half maximal inhibitory concentration (IC50) with GraphPad Prism 4® software.

UM-UC-3 = experiment: Combination 4 day growth assay (Cell TiterGlo), UM-UC-3; format: cell-based; details: Homo sapiens, UMUC3, 96 h, single treatment, read-out: Absolute IC50
Experimental: (§3) Cell lines for this study are obtained from ATCC and grown under ATCC recommended conditions, except for LXFA-983L, which is obtained from Oncotest/Charles Rivers Laboratories, Wilmington, Mass. and D122-96, which is obtained from L. Eisenbach (Weizman Institute of Science, Rehovot, Israel)—both grown under recommended conditions. […] The proliferation assay is performed as a 4 day growth assay using Cell TiterGlo® as the readout. Briefly, cells are plated in 96-well cell culture plates and allowed to adhere overnight at 37° C. The following day, cells are treated with compounds, either single treatments or combination treatments. First, the testing compounds are serially diluted in DMSO, followed by dilution into media as a 5× concentration with 1% DMSO, and finally added to cells in media to dilute to 1×. The cells are incubated at 37° C. for 4 more days. At the end of the incubation period, Cell TiterGlo® reagent is mixed and added to the wells. After 10 minutes, the luminescence is read by a Perkin Elmer Envision instrument. Absolute IC50 values generated by a 4-parameter logistics model for the single and combination treatments are generated, followed by combination indexes for each combination treatment and cell line. The combination IC50 values are adjusted based on the total concentration of each compound when added together. […] The combination index (CI) measures the degree to which the potency of a combination therapy differs from the expected-if-additive potency and is based on the Loewe definition of additivity.
(§4) [formula] Where • CAy and CBy are the concentrations of therapies A and B that produce an effect, y, when given in combination • ICAy and ICBy are the concentrations of A and B that produce an effect, y, when given individually The biological interpretation of the combination index is as follows: synergistic if the combination index <0.5, additive if the combination index is between 0.5 and 2, and antagonistic if the combination index is >2.

H358 [1] = experiment: Combination 4 day growth assay (Cell TiterGlo), H358; format: cell-based; details: Homo sapiens, NCI-H358, 96 h, single treatment, read-out: Absolute IC50
Experimental: as §3, §4

SW756 = experiment: CellTiterGlo Cell Proliferation Assay, SW756; format: cell-based; details: Homo sapiens, KRas G12C, Cervix, 96 hr
Experimental: as §1, §2

EL2661 (PDX) = experiment: Anti-tumor growth activity, EL2661 lung PDX; format: in vivo; details: 28 Day, negative = regression
H358 [2] = experiment: 3D H358 Cell Proliferation Assay; format: cell-based; details: Homo sapiens, NCI-H358; H358, 3D, 96 hr; read-out: relative IC50
Experimental: Human lung cancer cells, H358, (ATCC CRL-5807) are used to evaluate compound inhibition in a 3D proliferation assay. Signal reflecting cell proliferation is detected with the CellTiterGlo® 3D reagent (Promega G9683). The cells are grown in RPMI 1640 (GIBCO®) supplemented with 10% heat inactivated FBS and 0.1 mg/ml penicillin/streptomycin. H358 cells are cultured in the growth phase and five thousand cells per well are plated in a black well clear round bottom 96-well ultra-low attachment surface plate (Corning® Cat 4520) with 80 μl/well of culture media. Cells are incubated overnight at 37° C. in a humidity chamber. 20 μl/well of serially diluted test compound is added to the plate which is then incubated for 96 hr. Plates are brought to RT and an equal volume of RT CellTiterGlo® 3D reagent is added. Plates are shaken at 750 RPM for 10 min at RT After a 1 hr incubation at RT to stabilize the signal, the luminescent signal is measured on the EnVision™ plate reader. The signal is converted to percent inhibition using the following equation: % Inhibition=100−[(Test Compound Signal−Median Minimum Signal)/(Median Maximum Signal−Median Minimum Signal)×100]. The Max Signal is a control well without inhibitor.

H1373 xenograft = experiment: Anti-tumor growth activity, H1373 lung xenograft; format: in vivo; details: 28 Day, negative = regression
SW1463 [3] = experiment: Combination 4 day growth assay (Cell TiterGlo), SW1463; format: cell-based; details: Homo sapiens, SW1463, 96 h, single treatment, read-out: Absolute IC50
Experimental: as §3, §4

SW1463 [4] = experiment: CellTiterGlo Cell Proliferation Assay, SW1463; format: cell-based; details: Homo sapiens, KRas G12C, colon, 96 hr, read-out: IC50 (μM) in 2 D cell proliferation
Experimental: as §1, §2

D122-96 = experiment: Combination 4 day growth assay (Cell TiterGlo), D122-96; format: cell-based; details: Mus musculus, 96 h, single treatment, read-out: Absolute IC50
Experimental: as §3, §4

EL3187 (PDX) = experiment: Anti-tumor growth activity, EL3187 lung PDX; format: in vivo; details: for Tumor Growth Inhibition (%) or Regression (−%): EL3187 (PDX) Lung, 28 Day, negative = regression
[5] = read-out: IC50 (μM) in 2 D cell proliferation
[6] = read-out: IC50 (μM) in 3 D spheroid cell proliferation

IC50 (H2122; [5]): 0.187 µM
IC50 (H2122; [6]): 0.017 µM
IC50 (H358 [1]): 41.9 nM
IC50 (SW756; [5]): 1.15 µM
IC50 (SW756; [6]): 7.83 µM
IC50 (H358 [2]): < 11.6 nM
IC50 (SW1463 [3]): 14.1 nM
IC50 (SW1463 [4]): 0.013 µM
SMILES: C=CC(=O)N1CCN(c2ncnc3c(F)c(-c4ccc(F)c5sc(N)nc45)c(Cl)cc23)CC1 [Example 1, 1-{4-[7-(2-Amino-7-fluoro-1,3-benzothiazol-4-yl)-6-chloro-8-fluoroquinazolin-4-yl]piperazin-1-yl}prop-2-en-1-one]
IC50 (UM-UC-3): 1830 nM
Tumor Growth Inhibition (%) or Regression (−%) (EL2661 (PDX); 10 mg/kg QD): 46.5%
Tumor Growth Inhibition (%) or Regression (−%) (EL2661 (PDX); 20 mg/kg QD): 58.6%
Tumor Growth Inhibition (%) or Regression (−%) (EL2661 (PDX); 30 mg/kg QD): 97.6%
Tumor Growth Inhibition (%) or Regression (−%) (EL2661 (PDX); 50 mg/kg QD): −8.6%
Tumor Growth Inhibition (%) or Regression (−%) (H1373 xenograft; 15 mg/kg BID): −60%
Tumor Growth Inhibition (%) or Regression (−%) (H1373 xenograft; 30 mg/kg BID): −71.6%
Tumor Growth Inhibition (%) or Regression (−%) (H1373 xenograft; 30 mg/kg QD): −52.4%
IC50 (D122-96): 124 nM
Tumor Growth Inhibition (%) or Regression (−%) (EL3187 (PDX); 5 mg/kg BID): −65%
Tumor Growth Inhibition (%) or Regression (−%) (EL3187 (PDX); 5 mg/kg QD): 94%
Tumor Growth Inhibition (%) or Regression (−%) (EL3187 (PDX); 15 mg/kg BID): −80%
Tumor Growth Inhibition (%) or Regression (−%) (EL3187 (PDX); 15 mg/kg QD): −75%
Tumor Growth Inhibition (%) or Regression (−%) (EL3187 (PDX); 30 mg/kg BID, 30 mg/kg): −100% and −92.5%
Tumor Growth Inhibition (%) or Regression (−%) (EL3187 (PDX); 100 mg/kg BID): −100%
Tumor Growth Inhibition (%) or Regression (−%) (EL3187 (PDX); 100 mg/kg QD): −100%
In Vivo Anti-Tumor Activities (EL3187 (PDX); EL3187 Lung PDX, Example 1 5 mg/kg QDx28): 94.8
